Assay results: ChEMBL document CHEMBL5154900, “Design and Synthesis of Dual EZH2/BRD4 Inhibitors to Target Solid Tumors” (J Med Chem, 2022)
The source made the active and inactive calls. The rule behind the calls is not given here.

Columns and labels:
A549 [1] = test: Antitumor activity against human A549 cells xenografted in BALB/c mouse assessed as reduction in tumor volume at 60 mg/kg, ip administered 6 times weekly for 38 days and measured every 3 days relative to control; format: functional; parameters: scale not given: the % may be the effect or the level left; settings: time 38 day
A549 [2] = test: Induction of apoptosis in human A549 cells assessed as downregulation of Bcl-xl protein at 1 uM inubated for 72 hrs by Western blot analysis; format: functional, cell-based
HCT-116 [3] = test: Effect on TNFRSF21 mRNA levels in human HCT-116 cells at 5 uM incubated for 48 hrs by RT-qPCR analysis; format: functional, cell-based
[4] = Cmax in 12 hr fasted BALB/c mouse at 80 mg/kg, po measured for 0.083 to 24 hrs by UPLC-MS/MS analysis; format: ADME, organism-based; parameters: dose 80 mg/kg, time 0.083-24 hrs, route po; settings: in vivo
[5] = Bioavailability in 12 hr fasted BALB/c mouse at 80 mg/kg, po measured for 0.083 to 24 hrs by UPLC-MS/MS analysis; format: ADME, organism-based; settings: in vivo, time 0.083-24 hrs
A549 [6] = test: Antitumor activity against human A549 cells xenografted in BALB/c mouse assessed as reduction in tumor weight at 60 mg/kg, ip administered 6 times weekly for 38 days relative to control; format: functional; parameters: scale not given: the % may be the effect or the level left; settings: time 38 day
[7] = molecular target: Bromodomain-containing protein 4 (Homo sapiens, UniProt O60885); test: Inhibition of BRD4 in human A549 cells assessed as increase in p21 levels incubated for 72 hrs by Western blot analysis; format: cell-based; settings: dose <= 2.5 µM, DDE = dose-dependent effect
HCT-116 [8] = test: Induction of cell cycle arrest in 24 hr starved human HCT-116 cells assessed as accumulation at G0/G1 phase at 1 uM measured after 48 hrs by PI staining based flow cytometric analysis; format: functional
[9] = molecular target: T1, Histone-lysine N-methyltransferase EZH2 (Homo sapiens, UniProt Q15910)
Target sequence in this assay (Q15910 whole entry): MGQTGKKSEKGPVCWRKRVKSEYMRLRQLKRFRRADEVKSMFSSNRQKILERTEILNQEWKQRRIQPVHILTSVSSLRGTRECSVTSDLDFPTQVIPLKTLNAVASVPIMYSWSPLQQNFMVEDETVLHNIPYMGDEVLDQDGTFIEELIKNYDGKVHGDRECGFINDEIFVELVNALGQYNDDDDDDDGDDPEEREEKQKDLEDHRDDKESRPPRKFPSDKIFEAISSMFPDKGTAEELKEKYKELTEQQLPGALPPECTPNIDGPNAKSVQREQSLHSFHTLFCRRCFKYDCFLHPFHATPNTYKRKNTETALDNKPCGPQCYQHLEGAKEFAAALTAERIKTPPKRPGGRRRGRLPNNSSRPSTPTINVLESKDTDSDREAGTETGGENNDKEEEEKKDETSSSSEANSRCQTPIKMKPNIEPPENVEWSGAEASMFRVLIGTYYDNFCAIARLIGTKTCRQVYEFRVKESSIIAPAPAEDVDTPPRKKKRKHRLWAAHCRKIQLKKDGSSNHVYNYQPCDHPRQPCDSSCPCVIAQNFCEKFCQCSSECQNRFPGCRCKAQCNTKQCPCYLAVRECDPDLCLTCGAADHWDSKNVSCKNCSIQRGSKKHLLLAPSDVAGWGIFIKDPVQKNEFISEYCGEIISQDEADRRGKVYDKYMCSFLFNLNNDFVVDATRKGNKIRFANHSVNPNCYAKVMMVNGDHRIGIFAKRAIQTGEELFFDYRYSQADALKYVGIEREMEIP

[10] = Cmax in 12 hr fasted BALB/c mouse at 80 mg/kg, ip measured for 0.083 to 24 hrs by UPLC-MS/MS analysis; format: ADME, organism-based; parameters: dose 80 mg/kg, time upper 24 hrs, time lower 0.083 hrs, route ip; settings: in vivo
[11] = molecular target: T1, Histone-lysine N-methyltransferase EZH2; test: Inhibition of EZH2 in human ASPC1 cells assessed as decrease in H3K27me3 level at 0.05 uM incubated for 72 hrs by Western blot analysis; format: cell-based
Target sequence in this assay (Q15910 whole entry, looked up): as the sequence (Q15910 whole entry) above

A549 [12] = test: Effect on ADRB2 mRNA levels in human A549 cells at 5 uM incubated for 48 hrs by RT-qPCR analysis; format: functional, cell-based
A549 [13] = test: Antiproliferative activity against human A549 cells assessed as inhibition of cell proliferation at 1 uM incubated for 4 days by cell counter method; format: functional, cell-based; settings: time 4.0 day
[14] = Tmax in 12 hr fasted BALB/c mouse at 80 mg/kg, po measured for 0.083 to 24 hrs by UPLC-MS/MS analysis; format: ADME, organism-based; settings: in vivo, time 0.083-24 hrs
[15] = molecular target: T1, Histone-lysine N-methyltransferase EZH2; test: Binding affinity to EZH2 in human A549 cell lysate assessed as increase in thermal stability at 10 uM incubated for 1 hr followed by temperature treatment at 45 to 54.5 degC for 3 mins by thermal shift assay; format: subcellular; settings: time 63.0 min
Target sequence in this assay (Q15910 whole entry, looked up): as the sequence (Q15910 whole entry) above

[16] = Clearance in 12 hr fasted BALB/c mouse at 80 mg/kg, ip measured for 0.083 to 24 hrs by UPLC-MS/MS analysis; format: ADME, organism-based; settings: in vivo, time 0.083-24 hrs
HCT-116 [17] = test: Effect on TRHDE mRNA levels in human HCT-116 cells at 5 uM incubated for 48 hrs by RT-qPCR analysis; format: functional, cell-based
A549 [18] = test: Antitumor activity against human A549 cells assessed as inhibition of colony formation measured after 12 to 20 days by crystal violet staining based analysis; format: functional, cell-based; settings: dose <= 0.4 µM, time 12-20 day, DDE = dose-dependent effect
ASPC1 [19] = test: Induction of cell cycle arrest in 24 hr starved human ASPC1 cells assessed as accumulation at G0/G1 phase at 1 uM measured after 48 hrs by PI staining based flow cytometric analysis; format: functional
ASPC1 [20] = test: Antitumor activity against human ASPC1 cells xenografted in BALB/c mouse assessed as tumor growth inhibition at 80 mg/kg, ip administered 3 times weekly for 28 days and measured every 3 days relative to control; format: functional; parameters: scale not given: the % may be the effect or the level left; settings: time 28 day
[21] = AUC in 12 hr fasted BALB/c mouse at 80 mg/kg, po measured for 0.083 to 24 hrs by UPLC-MS/MS analysis; format: ADME, organism-based; parameters: time upper 24 hrs, dose 80 mg/kg, time lower 0.083 hrs, route po; settings: in vivo
[22] = Half life in 12 hr fasted BALB/c mouse at 80 mg/kg, po measured for 0.083 to 24 hrs by UPLC-MS/MS analysis; format: ADME, organism-based; settings: in vivo, time 0.083-24 hrs
HCT-116 [23] = test: Effect on ADRB2 mRNA levels in human HCT-116 cells at 5 uM incubated for 48 hrs by RT-qPCR analysis; format: functional, cell-based

SMILES: CCN(c1cc(-c2ccc(OCCCCCNC(=O)C[C@@H]3N=C(c4ccc(Cl)cc4)c4c(sc(C)c4C)-n4c(C)nnc43)cc2)cc(C(=O)NCc2c(C)cc(C)[nH]c2=O)c1C)C1CCOCC1
- Activity (A549 [1]): 63.4%
- Activity (A549 [2]): Active
- Activity (HCT-116 [3]): Active
- Cmax [4]: 4380 ng/mL
- bioavailability [5]: 4.94%
- Activity (A549 [6]): 57.8%
- inhibition [7]: Dde
- Activity (HCT-116 [8]): Active
- IC50 [9]: 490 nM
- Cmax [10]: 27100 ng/mL
- inhibition [11]: Active
- Activity (A549 [12]): Active
- Activity (A549 [13]): Active
- Tmax [14]: 1 h
- Activity [15]: Active
- CL/F [16]: 4.88 mL/min/kg
- Activity (HCT-116 [17]): Active
- Activity (A549 [18]): Dde
- Activity (ASPC1 [19]): Active
- Activity (ASPC1 [20]): 38.6%
- AUC [21]: 13500 ng·h/mL
- half-life [22]: 4.16 h
- Activity (HCT-116 [23]): Active
